Earlier results as cited in US20070207944A1, “Blood Pressure Lowering Oligopeptides” (priority 2004, published 2007).

What was measured:
ACE = ACE (Homo sapiens, UniProt P12821); conditions: for ACE inhibiting activity: in vitro, as reported in the literature
[1] = tested on: spontaneously hypertensive rats; conditions: Nakamura et al. 1995, tripeptides from fermented milk

ACE, sequence (P12821 30-1306, species assumed): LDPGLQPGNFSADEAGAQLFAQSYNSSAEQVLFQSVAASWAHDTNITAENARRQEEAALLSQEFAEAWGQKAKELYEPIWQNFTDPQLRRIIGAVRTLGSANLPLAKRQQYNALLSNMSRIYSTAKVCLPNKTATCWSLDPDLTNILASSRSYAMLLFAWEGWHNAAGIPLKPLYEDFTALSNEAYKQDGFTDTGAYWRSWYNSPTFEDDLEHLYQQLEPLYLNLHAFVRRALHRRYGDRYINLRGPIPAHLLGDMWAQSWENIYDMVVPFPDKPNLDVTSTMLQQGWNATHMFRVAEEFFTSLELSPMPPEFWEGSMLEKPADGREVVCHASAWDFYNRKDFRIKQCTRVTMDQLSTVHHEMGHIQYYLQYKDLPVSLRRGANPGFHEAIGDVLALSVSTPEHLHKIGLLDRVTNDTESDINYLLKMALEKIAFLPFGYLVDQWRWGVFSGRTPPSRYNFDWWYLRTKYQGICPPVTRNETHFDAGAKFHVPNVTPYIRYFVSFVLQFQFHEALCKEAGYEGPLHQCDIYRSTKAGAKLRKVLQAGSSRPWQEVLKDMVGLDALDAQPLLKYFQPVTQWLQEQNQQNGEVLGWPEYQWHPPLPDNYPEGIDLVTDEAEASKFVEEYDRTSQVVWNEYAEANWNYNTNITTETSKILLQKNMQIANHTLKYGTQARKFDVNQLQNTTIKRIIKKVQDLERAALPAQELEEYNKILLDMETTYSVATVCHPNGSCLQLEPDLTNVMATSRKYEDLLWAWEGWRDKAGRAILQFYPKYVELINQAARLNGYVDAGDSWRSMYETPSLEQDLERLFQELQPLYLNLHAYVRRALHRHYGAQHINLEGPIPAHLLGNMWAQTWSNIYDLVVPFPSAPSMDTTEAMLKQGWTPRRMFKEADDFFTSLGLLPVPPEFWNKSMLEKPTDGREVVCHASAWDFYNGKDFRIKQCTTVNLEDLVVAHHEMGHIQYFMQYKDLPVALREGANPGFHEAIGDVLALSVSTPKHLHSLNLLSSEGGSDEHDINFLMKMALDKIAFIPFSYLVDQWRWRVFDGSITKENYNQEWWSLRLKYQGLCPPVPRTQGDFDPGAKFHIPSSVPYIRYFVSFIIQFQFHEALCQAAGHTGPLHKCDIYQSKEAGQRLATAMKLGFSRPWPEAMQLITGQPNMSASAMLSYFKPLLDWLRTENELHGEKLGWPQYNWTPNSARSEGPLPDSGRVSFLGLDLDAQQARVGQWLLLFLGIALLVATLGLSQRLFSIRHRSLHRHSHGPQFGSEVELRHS

Substance	ACE inhibiting activity (ACE)	IC50 (ACE; reported by EP 0 583 074, read-out: IC50 value (ACE inhibition))	antihypertensive effects [1]
Val-Pro-Pro [VPP]	Strong ACE inhibiting activities	9 µM	could be confirmed
Leu-Pro-Pro [LPP]	Strong ACE inhibiting activities	–	–
Ile-Pro-Pro [IPP]	Strong ACE inhibiting activities	–	could be confirmed
